Results as given in patent publication US11819497B2 (Azurity Pharmaceuticals, Inc., priority 2018, dated 2023).
In brackets after ≈: the same amount, converted by molar mass.

Test: Solubility of nimodipine in various aqueous solvent systems
Format: physicochemical
Conditions: for solubility: aqueous solvent system (glycerin/ethanol/water/PEG400), aqueous with cosolvent or surfactant or cyclodextrin, thermodynamic from solid, Nimodipine solubility

solubility (Glycerin 0%, Ethanol 0%, Water 1%, PEG400 99%): 43000 µg/mL (≈ 103 mM)
solubility (Glycerin 0%, Ethanol 0%, Water 5%, PEG400 95%): 38000 µg/mL (≈ 90.8 mM)
solubility (Glycerin 0%, Ethanol 0%, Water 10%, PEG400 90%): 26000 µg/mL (≈ 62.1 mM)
solubility (Glycerin 0%, Ethanol 0%, Water 15%, PEG400 85%): 14000 µg/mL (≈ 33.5 mM)
solubility (Glycerin 0%, Ethanol 0%, Water 40%, PEG400 60%): 1300 µg/mL (≈ 3.11 mM)
solubility (Glycerin 0%, Ethanol 0%, Water 50%, PEG400 50%): 400 µg/mL (≈ 0.956 mM)
solubility (Glycerin 0%, Ethanol 1.0%, Water 10%, PEG400 89%): 31000 µg/mL (≈ 74.1 mM)
solubility (Glycerin 0%, Ethanol 1.0%, Water 20%, PEG400 79%): 18000 µg/mL (≈ 43 mM)
solubility (Glycerin 0%, Ethanol 5.0%, Water 10%, PEG400 85%): 29000 µg/mL (≈ 69.3 mM)
solubility (Glycerin 0%, Ethanol 5.0%, Water 20%, PEG400 75%): 14000 µg/mL (≈ 33.5 mM)
solubility (Glycerin 20%, Ethanol 0%, Water 20%, PEG400 60%): 1500 µg/mL (≈ 3.58 mM)
solubility (Glycerin 30%, Ethanol 0%, Water 10%, PEG400 60%): 1600 µg/mL (≈ 3.82 mM)
solubility (Glycerin 35%, Ethanol 0.4%, Water 1%, PEG400 63%): 13400 µg/mL (≈ 32 mM)
solubility (Glycerin 35%, Ethanol 0.4%, Water 10%, PEG400 54%): 5700 µg/mL (≈ 13.6 mM)
solubility (Glycerin 36%, Ethanol 0.4%, Water 20%, PEG400 43% (Table VI)): 1500 µg/mL (≈ 3.58 mM)
solubility (Glycerin 36%, Ethanol 0.4%, Water 20%, PEG400 43% (Table VII)): 1500 µg/mL (≈ 3.58 mM)
solubility (Glycerin 39%, Ethanol 0%, Water 1%, PEG400 60%): 2100 µg/mL (≈ 5.02 mM)
solubility (Glycerin 46%, Ethanol 0.4%, Water 10%, PEG400 43%): 1500 µg/mL (≈ 3.58 mM)
solubility (Glycerin 51%, Ethanol 0.4%, Water 5%, PEG400 43%): 4300 µg/mL (≈ 10.3 mM)
solubility (Glycerin 55%, Ethanol 0.4%, Water 1%, PEG400 43%, room temperature): 5200 µg/mL (≈ 12.4 mM)
Effect of higher amounts of ethanol on nimodipine solubility (water, polyethylene glycol, ethanol solvent system, higher amounts of ethanol (Example 2)): reduced nimodipine solubility
Compound: COCCOC(=O)C1=C(C)NC(C)=C(C(=O)OC(C)C)C1c1cccc([N+](=O)[O-])c1 (stereo not drawn) [Nimodipine]
